According to patent US20260374766A1, “METHODS FOR TREATING CANCER” (Antares Therapeutics, Inc., priority 2022, published 2026):
pIC50, pKd: −log10 of the molar value. Like-named read-outs stand apart in the source and are kept apart here.

Experiments:
[1] = biological target: T1, p53 Y220C mutant protein (amino acid residues 94-293) (Homo sapiens, UniProt P04637, Y220C); experiment: Surface Plasmon Resonance (SPR) assay, Kd_kinetic; assay type: binding; details: read-out: SPR P53 Y220C KD kinetic
T1 construct: p53 Y220C mutant protein (amino acid residues 94-293)
T1 sequence (P04637 94-293, stated change not applied): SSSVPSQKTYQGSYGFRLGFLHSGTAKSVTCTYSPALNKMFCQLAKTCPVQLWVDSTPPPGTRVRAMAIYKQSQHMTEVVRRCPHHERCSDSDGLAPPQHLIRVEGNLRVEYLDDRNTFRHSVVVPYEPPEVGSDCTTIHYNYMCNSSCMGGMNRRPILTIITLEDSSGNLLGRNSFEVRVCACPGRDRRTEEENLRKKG
Method in brief: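 Surface plasmon resonance is run at 16 or 20 °C in 50 mM Tris pH 7.5 containing 100 mM NaCl, 1 mM DTT, 0.01% Brij35, 0.05% Tween-20 and 1% DMSO. Association and dissociation data are fitted to a 1:1 model.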

NUGC3 p53 Y220C = experiment: Cell Proliferation Assay (CellTiter-Glo, CTG), NUGC3 p53 Y220C; assay type: cell-based; details: Homo sapiens, NUGC-3, 120 h, NUGC3 cells, 5 days, CellTiter-Glo
Procedure: (§1) Inducible p53 Y220C and R273H constructs (Tet-One inducible expression system; Takara) were stably expressed in NClH1299 cells by lentiviral transduction. NUGC3, A549, BxPC3, T3M4, HuH7, HCC2935, MFE296, NClH1299, NClH1299-inducible p53 Y220C, and NClH1299-inducible p53 R273H cell lines were used for cell proliferation assay. 250-500 cells were seeded in each well of 384 plate and then compounds were dispensed into each well using Echo or Tecan. After 5 days of incubation, equal volume of CellTiter-Glo reagent (G7570; Promega) was added into each well and the plate was incubated at room temperature for 10 minutes with shaking. The luminescent signal was measured by PheraStar microplate reader and IC50 was calculated.

p53 Y220C = p53 Y220C (Homo sapiens, UniProt P04637, Y220C); experiment: Luciferase Reporter Assay (Luc), p53 response element, NClH1299 cells with inducible p53 Y220C; assay type: cell-based; details: luciferase reporter, NClH1299 inducible p53 Y220C, 6 hour; for AC50: read-out: Luc P53 Y220C AC50
Method in brief: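 Cells were seeded at 5,000 per well and induced with 0.5 ug/mL doxycycline for 24 hours, then exposed to compound for 6 hours. One-Glo reagent was added, plates shaken 5 minutes at room temperature, and luminescence read immediately.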

H1299 p53 R273H = experiment: Cell Proliferation Assay (CellTiter-Glo, CTG), H1299 p53 R273H (NClH1299-inducible p53 R273H); assay type: cell-based; details: Homo sapiens, NCI-H1299, 120 h, NClH1299-inducible p53 R273H cells, 5 days, CellTiter-Glo
Procedure: as §1

H1299 p53 Y220C = experiment: Cell Proliferation Assay (CellTiter-Glo, CTG), H1299 p53 Y220C (NClH1299-inducible p53 Y220C); assay type: cell-based; details: Homo sapiens, NCI-H1299, 120 h, NClH1299-inducible p53 Y220C cells, 5 days, CellTiter-Glo
Method in brief: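 Cells seeded at 250-500 per well and exposed to compound for 5 days. Viability read by CellTiter-Glo luminescence after 10 min at room temperature; IC50 calculated. H1299 lines carry Tet-One inducible p53 mutant constructs introduced by lentiviral transduction.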

Compound	pKd ([1]; SPR, p53 Y220C)	pIC50 (NUGC3 p53 Y220C)	AC50 (p53 Y220C) [nM]	Emax (p53 Y220C) [%]	pIC50 (H1299 p53 R273H)	pIC50 (H1299 p53 Y220C)	pKd [1]
COc1ccc(C(N)=O)nc1NCC#Cc1nn2c(N[C@@H]3CCN(C)C[C@@H]3F)cccc2c1SC(F)(F)F [Example 235]	> 8.00	5.52 to 5.82	750 to 1500	80 to 90	≤ 5.00	5.82 to 6.12	–
CNC(=O)c1ccc(OC)c(NCC#Cc2nc3c(NC4COC4)cccn3c2SC(F)(F)F)c1 [Example 240]	> 8.00	> 6.12	< 750	> 90	5.00 to 5.10	> 6.12	–
CNC(=O)c1ccc(OC)c(NCC#Cc2nc3c(N[C@H]4[C@H]5CC[C@@H]4NC5)cccn3c2SC(F)(F)F)c1 [Example 244]	> 8.00	5.82 to 6.12	> 3000	80 to 90	≤ 5.00	5.52 to 5.82	–
CNC(=O)c1ccc(OC)c(NCC#Cc2nc3c(N[C@@H]4[C@@H]5CC[C@H]4NC5)cccn3c2SC(F)(F)F)c1 [Example 247]	> 8.00	5.82 to 6.12	1500 to 3000	70 to 80	5.00 to 5.10	5.52 to 5.82	–
CNC(=O)c1ccc(OC)c(NCC#Cc2nc3c(N[C@H]4C[C@@H]5CC[C@H]4N5C)cccn3c2SC(F)(F)F)c1 [Example 248]	> 8.00	5.82 to 6.12	750 to 1500	70 to 80	5.10 to 5.30	5.82 to 6.12	–
CNC(=O)c1ccc(OC)c(NCC#Cc2nc3c(N[C@@H]4C[C@@H]5CC[C@H]4N5C)cccn3c2SC(F)(F)F)c1 [Example 249]	> 8.00	5.82 to 6.12	750 to 1500	< 70	5.10 to 5.30	5.82 to 6.12	–
CNC(=O)c1cc(NCC#Cc2nc3c(N[C@@H]4CCN(C)C[C@@H]4F)cccn3c2SC(F)(F)F)c(OC)nn1 [Example 259]	> 8.00	> 6.12	< 750	> 90	≤ 5.00	> 6.12	–
CNC(=O)c1ccc(OC)c(NCC#Cc2nc3c(N[C@@H]4CN(C)C[C@@H]4F)cccn3c2CC(F)(F)F)n1 [Example 262]	> 8.00	5.82 to 6.12	750 to 1500	70 to 80	≤ 5.00	> 6.12	–
CNC(=O)c1ccc(OC)c(NCC#Cc2nc3c(N[C@@H]4CNC[C@@H]4F)cccn3c2CC(F)(F)F)n1 [Example 263]	> 8.00	5.82 to 6.12	> 3000	70 to 80	≤ 5.00	5.52 to 5.82	–
CNC(=O)c1cnc(OC)c(NCC#Cc2nc3c(N[C@H]4C[C@@H]5CC[C@H]([C@H]4F)N5C)cccn3c2SC(F)(F)F)c1 [Example 266]	> 8.00	> 6.12	< 750	70 to 80	≤ 5.00	> 6.12	–
CNC(=O)c1cnc(OC)c(NCC#Cc2nc3c(N[C@H]4C[C@@H]5CC[C@@H](N5)[C@H]4F)cccn3c2SC(F)(F)F)c1 [Example 267]	> 8.00	> 6.12	< 750	70 to 80	≤ 5.00	> 6.12	–
CNC(=O)c1ccc(NCC#Cc2nn3c(N[C@@H]4CCNC[C@@H]4F)cccc3c2SC(F)(F)F)c(OC)c1 [Example 272]	> 8.00	5.82 to 6.12	< 750	80 to 90	5.10 to 5.30	> 6.12	–
CCc1ncc(C(=O)NC)cc1NCC#Cc1nc2c(N[C@@H]3CCN(C)C[C@@H]3F)cccn2c1SC(F)(F)F [Example 273]	> 8.00	> 6.12	< 750	> 90	≤ 5.00	> 6.12	–
CNC(=O)c1cnc(C)c(NCC#Cc2nc3c(N[C@@H]4CCN(C)C[C@@H]4F)cccn3c2SC(F)(F)F)c1 [Example 274]	> 8.00	> 6.12	< 750	> 90	≤ 5.00	> 6.12	–
CNC(=O)c1ccc(NCC#Cc2nc3c(N[C@@H]4CCOC[C@@H]4F)cccn3c2SC(F)(F)F)c(OC2CN(C)C2)c1 [Example 275, 4-{[3-(8-{[(3R,4R)-3-fluorooxan-4-yl]amino}-3-[(trifluoromethyl)sulfanyl]imidazo[1,2-a]pyridin-2-yl)prop-2-yn-1-yl]amino}-N-methyl-3-[(1-methylazetidin-3-yl)oxy]benzamide]	> 8.00	> 6.12	< 750	80 to 90	5.10 to 5.30	> 6.12	–
COc1ncc(C(N)=O)cc1NCC#Cc1nn2c(N[C@@H]3CCN(C)C[C@@H]3F)cccc2c1SC(F)(F)F [Example 276]	> 8.00	> 6.12	< 750	80 to 90	> 5.30	> 6.12	–
CNC(=O)c1cnc(OC)c(NCC#Cc2nc3c(N[C@@H]4CCN(C)C[C@@H]4F)cccn3c2SC(F)F)c1 [Example 278]	> 8.00	> 6.12	< 750	70 to 80	> 5.30	> 6.12	–
COc1cc(C(N)=O)ccc1NCC#Cc1nn2c(N[C@@H]3CCN(C)C[C@@H]3F)cccc2c1SC(F)F [Example 286]	> 8.00	> 6.12	< 750	> 90	≤ 5.00	> 6.12	–
CNC(=O)c1ccc(NCC#Cc2cc3c(N[C@@H]4CCNC[C@@H]4F)nccn3c2SC(F)(F)F)cc1 [Example 298]	–	> 6.12	< 750	> 90	≤ 5.00	> 6.12	> 8.00
COc1cc(C(N)=O)ccc1NCC#Cc1cc2c(N[C@@H]3CCN(C)C[C@@H]3F)nccn2c1SC(F)(F)F [Example 299]	> 8.00	> 6.12	< 750	> 90	≤ 5.00	> 6.12	–
